Assay results published in patent publication US20200377568A1, “Novel IL-4-/IL-13-derived peptide compounds for the treatment or prevention of neurodegenerative or neuroinflammatory diseases” (Universitätsmedizin der Johannes Gutenberg-Universität Mainz, priority 2018, published 2020).

Legend:
CD4+ T cells = test: TH2 differentiation of naive T cells; assay type: cell-based, mouse; details: different concentrations, FIG. 4B
Procedure: A-B: Effects of incubation with IL-4 and different concentrations of Link4 and Link13 on the differentiation of A: CD11b^+ bone marrow-derived macrophages (BMDMs) into F80^+CD206^+ cells, and B: CD4^+ T cells into Gata3^+ cells. C-D: FACS results for different populations of T cells and CD11b^+MHCII^+ monocytes/macrophages/microglia of immune cells isolated from C: spleen and D: central nervous system (CNS) of EAE mice treated with PBS, IL-4 or Link4.
In order to investigate whether Link4 and Link13 are able to modulate immune cells, in vitro assays were performed on bone marrow-derived macrophages (BDMBs) and on naïve T cells.
For the isolation of T lymphocytes 5-8 week old C57BL/6 mice were sacrificed by cervical dislocation and the spleens and lymph nodes (LN) were isolated and rubbed trough a 100 μm cell strainer into a 50 ml tube with washing medium (5% FCS, 1% P/S,1% HEPES in PBS). After washing, the cells were centrifuged for 5 min at 550 g at 4° C. To remove the red blood cells the […] was re-suspended in lysis buffer followed by centrifugation (5 min, 550 g, 4° C.). The cells were resuspended in MACS buffer and magnetic lymphocyte sorting was performed on ice, using the MidiMACS and QuadroMACS Seperators. A CD4 untouched and CD8 touched cell sort was performed a washing step in ml MACS buffer (5 min, 550 g, 4° C.). Cells were incubated with CD4 T cell biotin antibody cocktail (Miltenyi Biotec) in MACS buffer for 5 min at 4° C. Subsequently, anti-biotin microbeads and CD8 microbeads in MACS buffer was added. CD8 microbeads were added to reduce the possible contamination of CD8^+ lymphocytes. After 10 min of incubation at 4° C. the cells were washed again and resuspended in MACS buffer. MACS columns were pre equilibrated and topped with pre-separation filters (30 μm). A maximum of 300×10^6 cells were added to each column followed by 3 consecutive washing steps with MACS buffer. […] The purity of the magnetic cells sorts was assessed by comparing pre- and post-sort samples by flow cytometry. […]

[1] = test system: dissociated cortical neurons; test: Phosphorylation of signalling molecules (Western blot); assay type: cell-based, mouse; details: 50 ng/ml, 10 min treatment, FIG. 5B
Procedure: A: Cortical outgrowth in response to 50 ng/ml IL-4, Link4, or Link13, compared to PBS control. The increase in growth at 48 h was calculated over the basal (untreated) growth at 24 h. B: Effects on phosphorylation of signalling molecules after 10 min treatment of dissociated cortical neurons with IL-4, Link4 or PBS.
Neonatal (P1-3) cortex explants were dissected from 250 μm thick vibratome (HM650V, Thermo Fisher) sections from Bregma 0 to −1.5 (motor cortex). Cortical layer V was micro-dissected, plated on poly-D-lysine (0.5 mg/ml) and laminin (1 mg/ml)-coated glass coverslips and grown for 24 h in neurobasal medium with 2% horse serum, 2% B27, 1% glutamax and 0.5% penicillin/streptomycin. Explants were treated for 48 h with rIL-4 (50 ng/ml), Link4 (50 ng/ml), Link13 (50 ng/ml) or PBS. Axon length was assessed using Adobe Photoshop by measuring the distance of the 40 longest axons, corrected for the initial growth at 24 h. […]
For Western blotting, the following primary antibodies were used: anti-IRS1 (EMD Millipore), anti-phospho-IRS1 (Cell Signaling Technology), anti-MAPK and anti-phospho-MAPK (Cell Signaling Technology), anti-PKCγ (Santa-Cruz), anti-phospho-PKCγ (Biozol). DyLight […]-coupled secondary antibodies were used for quantitative analysis of the proteins using the Li-Cor Odyssey FC imaging system (Li-Cor Bioscience). […]

With “RARSEIIGIGSKSIMQMDY (listed as Mus musculus) [Link4]” the “differentiation of CD4+ T cells into Gata3+ cells” value (CD4+ T cells) was “did not take place” and the “phosphorylation of signalling molecules (neuronal signalling)” value [1] was “same neuronal signalling effects as IL-4”.
